Data reported in US20040254162A1, “Oxazolidinone derivatives as antimicrobials” (priority 2001, published 2004).
Converted amounts (≈) assume the structure as drawn. Where two headings read alike, the source gives them in different places.

Experiments:
[1] = Changes in MIC under different conditions: agar MIC; format: cell-based; conditions: strain not given
Fusobacterium montiferum = test: Agar dilution MIC, anaerobes; format: cell-based; conditions: Fusobacterium, single isolates, anaerobic agar dilution; read-out: MIC Fusobacterium montiferum
Fusobacterium necrogenes = test: Agar dilution MIC, anaerobes; format: cell-based; conditions: Fusobacterium necrogenes; single isolate, anaerobic agar dilution; read-out: MIC Fusobacterium necrogenes
Clostridium camis = test: Agar dilution MIC, anaerobes; format: cell-based; conditions: Clostridium; single isolates, anaerobic agar dilution; read-out: MIC Clostridium camis
Ent. faecalis ATCC 29212 = test: MIC, agar incorporation method; conditions: Enterococcus faecalis, ATCC29212, read-out: MIC E. faecalis 29212
Prevotella bivia = test: Agar dilution MIC, anaerobes; format: cell-based; conditions: Prevotella bivia; single isolate, anaerobic agar dilution; read-out: MIC Prevotella bivia
Strep. pne. ATCC 6303 = test: MIC, agar incorporation method; conditions: Streptococcus pneumoniae, ATCC6303, read-out: MIC S. pneum 6303
[2] = system: Mycobacterium tuberculosis; test: microbe, parasite or virus in culture; conditions: 504 h
[3] = Changes in MIC under different conditions: broth MIC; format: cell-based; conditions: strain not given
[4] = system: Peptostreptococcus asaccharolyticus; test: Agar dilution MIC, anaerobes; format: cell-based; conditions: single isolates, anaerobic agar dilution
G +ve bacteria = test: Summary of in vitro activity (MIC)
Clostridium difficile = test: Agar dilution MIC, anaerobes; format: cell-based; conditions: Clostridioides difficile, single isolates, anaerobic agar dilution; read-out: MIC Clostridium difficile
S. pneum AB 34 = test: MIC, agar incorporation method; conditions: Streptococcus pneumoniae, AB34, read-out: MIC S. pneum AB 34
[5] = system: Mycobacterium tuberculosis
Bacteroides fragilis = test: Agar dilution MIC, anaerobes; format: cell-based; conditions: Bacteroides fragilis, single isolates, anaerobic agar dilution; read-out: MIC Bacteroides fragilis
[6] = system: Peptostreptococcus magnum; test: Agar dilution MIC, anaerobes; format: cell-based; conditions: single isolates, anaerobic agar dilution
MRSA 33 = test: MIC, agar incorporation method; conditions: Staphylococcus aureus, MRSA, read-out: MIC MRSA 33
S. aureus ATCC 25923 = test: MIC, agar incorporation method; conditions: Staphylococcus aureus, ATCC25923, read-out: MIC S. aureus 25923
Fusobacterium nucleatum = test: Agar dilution MIC, anaerobes; format: cell-based; conditions: single isolates, anaerobic agar dilution
Strep. pyog. ATCC 19615 = test: MIC, agar incorporation method; conditions: Streptococcus pyogenes, ATCC19615, read-out: MIC S. pyogenes 19615
Fusobacterium varium = test: Agar dilution MIC, anaerobes; format: cell-based; conditions: Fusobacterium varium, single isolates, anaerobic agar dilution; read-out: MIC Fusobacterium varium
[7] = system: Prevotella (Bacteroides) disiens; test: Agar dilution MIC, anaerobes; format: cell-based; conditions: single isolates, anaerobic agar dilution; read-out: MIC Prevotella (Bacteroides) disiens
[8] = system: clinically relevant gram positive pathogens; conditions: nearly all clinically relevant gram positive pathogens; cited from earlier work
Porphyromonas gingivalis = test: Agar dilution MIC, anaerobes; format: cell-based; conditions: Porphyromonas gingivalis; single isolate, anaerobic agar dilution; read-out: MIC Porphyromonas gingivalis
Eubacterium leutum = test: Agar dilution MIC, anaerobes; format: cell-based; conditions: Eubacterium, single isolates, anaerobic agar dilution; read-out: MIC Eubacterium leutum
P. acnes = test: Agar dilution MIC, anaerobes; format: cell-based; conditions: Cutibacterium acnes, single isolates, anaerobic agar dilution; read-out: MIC P. acnes
[9] = in vivo; cited from earlier work
[10] = system: Prevotella melaninogenica; test: Agar dilution MIC, anaerobes; format: cell-based; conditions: single isolates, anaerobic agar dilution
MRSA 562 [11] = test: In vivo activity against MRSA 562 (ED50); parameters: species or system Methicillin Resistant Staphylococcus aureus; conditions: PO; MRSA 562 infection
MRSA 562 [12] = test: MIC, agar incorporation method; conditions: Staphylococcus aureus, MRSA
MRSA 15187 = test: MIC, agar incorporation method; conditions: Staphylococcus aureus, MRSA, read-out: MIC MRSA 15187
S. aureus = test: Summary of in vitro activity (MIC); conditions: Staphylococcus aureus
[13] = system: Peptostreptococcus micros; test: Agar dilution MIC, anaerobes; format: cell-based; conditions: single isolates, anaerobic agar dilution
[14] = system: Mycobacterium avium intracellulare; test: Agar dilution method, mycobacteria; format: cell-based

Question: For `CC(=O)NC[C@H]1CN(c2ccc(N3CCOCC3)c(F)c2)C(=O)O1` [Linezolid], which “Agar MIC” value [1] is on record?
Answer: The value was 2 µg/mL.

Question: And the MIC (Fusobacterium montiferum)?
Answer: The MIC was 0.25 µg/mL (≈ 0.741 µM).

Question: And the MIC (Fusobacterium necrogenes)?
Answer: The MIC was 0.5 µg/mL (≈ 1.48 µM).

Question: What about the MIC (Clostridium camis) of the same compound?
Answer: Its MIC is 2 µg/mL (≈ 5.93 µM).

Question: What about the MIC (Ent. faecalis ATCC 29212) of the same compound?
Answer: The MIC was 2 µg/mL (≈ 5.93 µM).

Question: And the MIC (Prevotella bivia)?
Answer: The MIC was 1 µg/mL (≈ 2.96 µM).

Question: And the MIC (Strep. pne. ATCC 6303)?
Answer: The MIC was 2 µg/mL (≈ 5.93 µM).

Question: What about the MIC50 [2] of the same compound?
Answer: Its MIC50 is 8 µg/mL (≈ 23.7 µM).

Question: And the MIC90 [2]?
Answer: Its MIC90 is 64 µg/mL (≈ 190 µM).

Question: What about the “Broth MIC +50% Sheep serum” value ([3]; +50% sheep serum) of the same compound?
Answer: Its value is 2 µg/mL.

Question: And the “Broth MIC Normal MH broth” value ([3]; normal MH broth)?
Answer: The value was 1 µg/mL.

Question: What about the MIC ([4]; Peptoniphilus asaccharolyticus) of the same compound?
Answer: Its MIC is 0.5 µg/mL (≈ 1.48 µM).

Question: And the “MIC Peptostreptococcus asaccharolyticus” value [4]?
Answer: Its value is 1 µg/mL (≈ 2.96 µM).

Question: What about the MIC50 (G +ve bacteria) of the same compound?
Answer: The MIC50 was 2 µg/mL (≈ 5.93 µM).

Question: What about the MIC90 (G +ve bacteria) of the same compound?
Answer: Its MIC90 is 4 µg/mL (≈ 11.9 µM).

Question: What about the MIC (Clostridium difficile) of the same compound?
Answer: Its MIC is 2 µg/mL (≈ 5.93 µM).

Question: And the MIC (S. pneum AB 34)?
Answer: Its MIC is 4 µg/mL (≈ 11.9 µM).

Question: What about the G.M. [5] of the same compound?
Answer: Its G.M. is 8 µg/mL.

Question: What about the MIC (Bacteroides fragilis) of the same compound?
Answer: The MIC was 4 µg/mL (≈ 11.9 µM).

Question: And the MIC ([6]; Peptostreptococcus, read-out: MIC Peptostreptococcus magnum)?
Answer: The MIC was 2 µg/mL (≈ 5.93 µM).

Question: What about the “MIC Peptostreptococcus magnum” value [6] of the same compound?
Answer: The value was 1 µg/mL (≈ 2.96 µM).

Question: What about the MIC (MRSA 33) of the same compound?
Answer: Its MIC is 2 µg/mL (≈ 5.93 µM).

Question: And the MIC (S. aureus ATCC 25923)?
Answer: The MIC was 2 µg/mL (≈ 5.93 µM).

Question: What about the MIC (Fusobacterium nucleatum; Fusobacterium nucleatum, read-out: MIC Fusobacterium nucleatum) of the same compound?
Answer: The MIC was 0.5 µg/mL (≈ 1.48 µM).

Question: What about the “MIC Fusobacterium nucleatum” value (Fusobacterium nucleatum) of the same compound?
Answer: Its value is 1 µg/mL (≈ 2.96 µM).

Question: And the MIC (Strep. pyog. ATCC 19615)?
Answer: Its MIC is 2 µg/mL (≈ 5.93 µM).

Question: What about the MIC (Fusobacterium varium) of the same compound?
Answer: Its MIC is 1 µg/mL (≈ 2.96 µM).

Question: What about the MIC [7] of the same compound?
Answer: Its MIC is 4 µg/mL (≈ 11.9 µM).

Question: And the MIC90 [8]?
Answer: Its MIC90 is 2 to 4 µg/mL.

Question: What about the MIC (Porphyromonas gingivalis) of the same compound?
Answer: Its MIC is 1 µg/mL (≈ 2.96 µM).

Question: What about the MIC (Eubacterium leutum) of the same compound?
Answer: The MIC was 1 µg/mL (≈ 2.96 µM).

Question: And the MIC (P. acnes)?
Answer: Its MIC is 0.5 µg/mL (≈ 1.48 µM).

Question: And the Cmax [9]?
Answer: Its Cmax is 12000 to 16000 ng/mL.

Question: And the MIC ([10]; Prevotella melaninogenica, read-out: MIC Prevotella melaninogenica)?
Answer: The MIC was 1 µg/mL (≈ 2.96 µM).

Question: And the “MIC Prevotella melaninogenica” value [10]?
Answer: Its value is 2 µg/mL (≈ 5.93 µM).

Question: What about the “ED50 (mg/kg body weight) PO” value (MRSA 562 [11]) of the same compound?
Answer: Its value is 4.56 mg/kg body weight.

Question: And the MIC (MRSA 562 [12])?
Answer: The MIC was 2 µg/mL (≈ 5.93 µM).

Question: And the MIC (MRSA 562 [12]; read-out: MIC MRSA 562)?
Answer: The MIC was 2 µg/mL (≈ 5.93 µM).

Question: What about the MIC (MRSA 15187) of the same compound?
Answer: The MIC was 1 µg/mL (≈ 2.96 µM).

Question: And the MIC50 (S. aureus)?
Answer: Its MIC50 is 2 µg/mL (≈ 5.93 µM).

Question: And the MIC90 (S. aureus)?
Answer: Its MIC90 is 4 µg/mL (≈ 11.9 µM).

Question: And the MIC (S. aureus; read-out: Geometric Mean of in vitro activity (MIC))?
Answer: The MIC was 2.38 µg/mL (≈ 7.05 µM).

Question: And the MIC ([13]; Parvimonas micra, read-out: MIC Peptostreptococcus micros)?
Answer: The MIC was 0.5 µg/mL (≈ 1.48 µM).

Question: What about the “MIC Peptostreptococcus micros” value [13] of the same compound?
Answer: Its value is 1 µg/mL (≈ 2.96 µM).

Question: And the G.M. [14]?
Answer: The G.M. was 20.587 µg/mL.

Question: And the MIC50 ([14]; Mycobacterium avium, 504 h, Middlebrook 7H10 agar, 21 days, read-out: MIC50)?
Answer: Its MIC50 is 16 µg/mL (≈ 47.4 µM).

Question: And the MIC90 ([14]; Mycobacterium avium, 504 h, Middlebrook 7H10 agar, 21 days, read-out: MIC90)?
Answer: Its MIC90 is 64 µg/mL (≈ 190 µM).
